Square brackets hold non-standard residues; d marks the D form. Peptide text beside a SMILES is read from it. Dmt = Cc1cc(O)cc(C)c1C[C@H](N)C(=O)O; Tic = O=C(O)[C@@H]1Cc2ccccc2CN1
Legend:
[1] = target: Delta-type opioid receptor (Rattus norvegicus, UniProt P33533); assay: Displacement of [3H]deltorphin II from delta opioid receptor in rat brain membrane; format: cell membranes
Mu-type opioid receptor [2] = target: Mu-type opioid receptor (Rattus norvegicus, UniProt P33535); assay: Displacement of [3H]DAMGO from mu opioid receptor in rat brain membrane; format: cell membranes
Chain of Mu-type opioid receptor (Rattus norvegicus, UniProt P33535) (P33535 whole entry): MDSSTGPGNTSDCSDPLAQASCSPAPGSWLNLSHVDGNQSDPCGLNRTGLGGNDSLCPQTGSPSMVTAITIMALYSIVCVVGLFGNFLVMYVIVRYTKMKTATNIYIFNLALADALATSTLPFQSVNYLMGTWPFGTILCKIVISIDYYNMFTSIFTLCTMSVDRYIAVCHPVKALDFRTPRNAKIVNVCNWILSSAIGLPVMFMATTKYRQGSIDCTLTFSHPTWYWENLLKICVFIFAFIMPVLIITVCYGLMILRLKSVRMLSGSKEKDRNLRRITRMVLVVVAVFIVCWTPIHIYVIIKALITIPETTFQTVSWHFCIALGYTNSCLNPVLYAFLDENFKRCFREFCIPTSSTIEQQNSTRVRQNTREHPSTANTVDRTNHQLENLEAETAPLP

[3] = target: Opioid receptors; mu & delta (Rattus norvegicus) (UniProt P33533+P33535); assay: Selectivity ratio of rat delta opioid receptor over rat mu opioid receptor; format: protein assay
Chain of Opioid receptors; mu & delta (Rattus norvegicus) (P33533 whole entry, looked up): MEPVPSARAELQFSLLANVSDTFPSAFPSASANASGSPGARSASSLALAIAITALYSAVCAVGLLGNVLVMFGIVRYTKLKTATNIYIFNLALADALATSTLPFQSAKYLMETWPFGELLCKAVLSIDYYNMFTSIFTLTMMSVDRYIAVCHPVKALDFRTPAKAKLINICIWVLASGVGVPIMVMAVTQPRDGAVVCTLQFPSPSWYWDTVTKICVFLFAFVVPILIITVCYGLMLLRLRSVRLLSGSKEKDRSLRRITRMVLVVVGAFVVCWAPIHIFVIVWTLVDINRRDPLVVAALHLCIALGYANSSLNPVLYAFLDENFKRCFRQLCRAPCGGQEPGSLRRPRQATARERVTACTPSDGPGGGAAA
Chain of Opioid receptors; mu & delta (Rattus norvegicus) (P33535 whole entry, looked up): as the sequence (P33535 whole entry) above

[4] = target: T1, Delta-type opioid receptor (Mus musculus, UniProt P32300); assay: Agonistic activity at delta opioid receptor in mouse vas deferens; format: functional, tissue-based
T1 sequence (P32300 whole entry): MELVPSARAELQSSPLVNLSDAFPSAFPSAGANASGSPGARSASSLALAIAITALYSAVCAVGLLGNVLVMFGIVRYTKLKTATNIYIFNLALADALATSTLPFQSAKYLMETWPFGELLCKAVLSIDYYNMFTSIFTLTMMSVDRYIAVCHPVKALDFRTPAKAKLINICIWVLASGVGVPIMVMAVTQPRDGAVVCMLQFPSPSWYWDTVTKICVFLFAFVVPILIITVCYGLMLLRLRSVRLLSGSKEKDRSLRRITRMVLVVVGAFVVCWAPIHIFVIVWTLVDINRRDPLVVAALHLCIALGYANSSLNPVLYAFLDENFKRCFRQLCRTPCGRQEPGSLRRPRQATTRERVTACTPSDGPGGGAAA

[5] = target: T1, Delta-type opioid receptor; assay: Displacement of deltorphin-II from delta opioid receptor in mouse vas deferens; format: functional; details: read-out: pA2 (converted)
Mu-type opioid receptor [6] = target: Mu-type opioid receptor (Cavia porcellus, UniProt P97266); assay: Agonistic activity against mu opioid receptor in guinea-pig ileum; format: functional, tissue-based
Chain of Mu-type opioid receptor (Cavia porcellus, UniProt P97266) (P97266 whole entry): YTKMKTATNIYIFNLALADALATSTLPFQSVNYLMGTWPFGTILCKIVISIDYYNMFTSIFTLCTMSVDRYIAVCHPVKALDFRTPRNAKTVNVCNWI

Chain of Delta-type opioid receptor (Rattus norvegicus, UniProt P33533) (P33533 whole entry): as the sequence (P33533 whole entry, looked up) above

Structure (SMILES) | Ki [1] [nM] | Ki (Mu-type opioid receptor [2]) [nM] | Ratio Ki [3] | IC50 [4] [nM] | Kb [5] [nM] | IC50 (Mu-type opioid receptor [6]) [nM]
Cc1cc(O)cc(C)c1C[C@H](N)C(=O)N1Cc2ccccc2CC1C(=O)NCCCCCCNC(=O)C1Cc2ccccc2CN1 (some centres undefined) | 0.13 | 2.81 | 22 | > 10000 | 0.0398 | 1600
Cc1cc(O)cc(C)c1C[C@H](N)C(=O)NCCCCCCNC(=O)C1Cc2ccccc2CN1C(=O)[C@@H](N)Cc1c(C)cc(O)cc1C (some centres undefined) | 0.23 | 0.38 | 2 | > 10000 | 0.0631 | 5900
Cc1cc(O)cc(C)c1C[C@H](N)C(=O)N1Cc2ccccc2C[C@H]1C(=O)O (H-[Dmt]-[Tic]-OH) | – | – | – | – | 3.16 | –
Cc1cc(O)cc(C)c1C[C@H](N)C(=O)N1Cc2ccccc2CC1C(=O)NCCCCCCNC(=O)[C@@H](N)Cc1ccccc1 (some centres undefined) | 0.89 | 1.91 | 2 | > 10000 | 0.0501 | 5550
